According to the NIST ThermoML archive (doi:10.1016/j.tca.2016.11.017):
± gives the expanded uncertainty stated by the source.

Assays:
[1] = for Normal melting temperature: DTA; for mass density: 103 K, 101.33 kPa, X-ray diffraction
[2] = Molar enthalpy of transition or fusion; details: DSC

Row | Normal melting temperature ([1]; Crystal) | Molar enthalpy of transition or fusion ([2]; Crystal) | mass density ([1]; Crystal) | Normal melting temperature ([1]; Crystal 1) | Normal melting temperature ([1]; Crystal 2) | Molar enthalpy of transition or fusion ([2]; Crystal 1) | Molar enthalpy of transition or fusion ([2]; Crystal 2) | SMILES
1 | 70.60 ± 0.5 °C | 6 ± 1.2 kcal/mol | – | – | – | – | – | COC(C(=O)O)c1ccccc1 (configuration not stated) [2-methoxy-2-phenylacetic acid]
2 | 69.30 ± 0.5 °C | 4.51 ± 0.908 kcal/mol | 1311 ± 7 kg/m3 | – | – | – | – | CO[C@H](C(=O)O)c1ccccc1 [(S)-2-methoxy-2-phenylacetic acid]
3 | 187.40 ± 0.5 °C | 10.9 ± 2.2 kcal/mol | – | – | – | – | – | CO[C@H](C(=O)[O-])c1ccccc1.C[C@@H]([NH3+])C1CCCCC1
4 | – | – | 1149 ± 6 kg/m3 | 162.90 ± 0.5 °C | 166.30 ± 0.5 °C | 7.31 ± 1.48 kcal/mol | 9.16 ± 1.84 kcal/mol | CO[C@H](C(=O)[O-])c1ccccc1.C[C@H]([NH3+])C1CCCCC1
